Measurements reported in PubChem BioAssay AID1963976 (Molecular Pharmacology Branch, DTP, NCI, 2024).
Several values for one entry are separate records, joined by “and”; a condition that tells them apart may be missing. Equal entries are not always repeated.

Tested on: 435261-313-R-J1-PDC tumor spheroid viability
Assay: Anticancer human tumor 435261-313-R-J1-PDC patient-derived colon adenocarcinoma cell line growth inhibition [PI3K]
Conditions: spheroids with HUVEC and MSC; for viability, T/C: stronger effect = lower value
Description: Combinatorial screen of targeted agents with the PI3K inhibitors inavolisib, alpelisib, duvelisib, and copanlisib in multi-cell type tumor spheroids
A high-throughput screen of multi-cell type tumor spheroids was designed to identify active combinations of targeted small molecules and PI3K pathway inhibitors. Complex spheroids include a stromal component modeled by human endothelial cells (HUVEC) and fibroblasts modeled by human mesenchymal stem cells (MSCs). The concentration ranges selected for each drug and investigational agent were based upon clinically achievable concentrations if the clinical Cmax of the agent was known.
Compounds. The drugs and investigational agents: inavolisib (NSC800729), alpelisib (NSC765974), duvelisib (NSC772469), copanlisib (NSC816437), ipatasertib (NSC767898), afuresertib (NSC778305), talazoparib (NSC767125), sapanisertib (NSC764658), selumetinib (NSC741078), tovorafenib (DAY101, NSC766906), vemurafenib (NSC761431), ravoxertinib (NSC781343), sotorasib (NSC818433), MRTX1133 (NSC 836407), abemaciclib (NSC 768073), palbociclib (NSC758247), venetoclax (NSC 766270), SY5609 (NSC837396), enzalutamide (NSC755605), and darolutamide (NSC825331), were obtained from the National Cancer Institute (NCI) Developmental Therapeutics Program Chemical Repository. The FDA-approved anticancer drug set is available from the NCI Developmental Therapeutics Program. […] The stock solutions were prepared in dimethyl sulfoxide (DMSO, Sigma-Aldrich, St. Louis, MO, cat. D2650) at 800-fold the tested concentration and stored at -70 degrees C prior to their use. All drugs and investigational agents were tested over a range starting from a high concentration at or near the clinical Cmax and decreasing in half-log increments. If the clinical Cmax for an agent had not been determined, the highest concentration tested was 10 microM.
Cell Culture. All cells were maintained in an incubator at 37 degrees C and 5% CO2 with 95% humidity. The PDC lines were cultured according to standard operating procedures established by the NCI PDMR (https://pdmr.cancer.gov/sops/default.htm). All PDCs were thawed and cultured in Matrigel-coated flasks prepared with a working solution of 1X Ham's F-12 nutrient mix, without supplementation (Invitrogen, Waltham, MA, cat. 11765054), 100 U/mL penicillin-streptomycin (Invitrogen, cat. 15140122), and 2.5% Matrigel (Corning Inc., Corning, NY, cat. 354248) for the first three passages. The 354836-022-R-J1-PDC, 475296-252-R-J1-PDC, and 997726-040-R-J2-PDC lines were cultured in 6A media, which includes advanced DMEM/F-12 (Thermo Fisher Scientific, cat. 12634028), 10 mM HEPES (Thermo Fisher Scientific, cat. 15630080), 1X GlutaMAX supplement (Thermo Fisher Scientific, cat. 35050061), 0.1 mg/mL primocin (InvivoGen, San Diego, CA, cat. ant-pm-2), 10% defined fetal bovine serum, heat inactivated (HyClone Laboratories Inc., Logan, UT, cat. SH30070.03HI), 50% L-WRN conditioned media (ATCC, cat. CRL-3276), 1.25 mM N-Acetyl-L-cysteine (Sigma-Aldrich, cat. A9165), 10 mM nicotinamide (Sigma-Aldrich, cat. N0636), 1X B-27 supplement (Thermo Fisher Scientific, cat. 17504044), 1X N-2 supplement (Thermo Fisher Scientific, cat. 17502048), and 10 microM Y-27632 dihydrochloride (Tocris Bioscience, Bristol, United Kingdom, cat. 1254). The 624824-186-R-J2-PDC line was cultured in 6C/Colon 1B media, which includes all 6A media components plus 50 ng/mL human EGF recombinant protein (Thermo Fisher Scientific, cat. PHG0311). […]
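Further: spheroids exposed to compounds for 7 days.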

C#Cc1c(F)ccc2cc(O)cc(-c3ncc4c(N5CC6CCC(C5)N6)nc(OCC56CCCN5CC(F)C6)nc4c3F)c12 (centres undefined)
viability, T/C (compound 0.0316 µM): 89.8% and 97.7% and 83.1% | viability, T/C (compound 0.1 µM): 91.7% and 82.7% and 95.5% | viability, T/C (compound 0.316 µM): 124% and 84% and 113% | viability, T/C (compound 1 µM): 95.2% and 62.6% and 64% | viability, T/C (compound 3.16 µM): 61.5% and 78.3% and 73.5% | viability, T/C (compound 10 µM): 36.6% and 30.7% and 31.1% | IC50 (curve of compound): 5.36 µM and 5.46 µM and 5.56 µM

CC(C)NCC(C(=O)N1CCN(c2ncnc3c2C(C)CC3O)CC1)c1ccc(Cl)cc1 (centres undefined) + CC(Nc1ccc2c(c1)OCCn1cc(N3C(=O)OCC3C(F)F)nc1-2)C(N)=O
IC50 (curve of first compound, second compound 0.00316 µM): 5.07 µM | IC50 (curve of first compound, second compound 0.01 µM): 3.75 µM | IC50 (curve of first compound, second compound 0.0316 µM): 2.48 µM | IC50 (curve of first compound, second compound 0.1 µM): < 0.0316 µM | IC50 (curve of first compound, second compound 0.316 µM): < 0.0316 µM | IC50 (curve of first compound, second compound 1 µM): < 0.0316 µM | viability, T/C (second compound 0.00316 µM, first compound 0.0316 µM): 76.3% | viability, T/C (second compound 0.00316 µM, first compound 0.1 µM): 77.9% | viability, T/C (second compound 0.00316 µM, first compound 0.316 µM): 69.5% | viability, T/C (second compound 0.00316 µM, first compound 1 µM): 72.3% | viability, T/C (second compound 0.00316 µM, first compound 3.16 µM): 63.6% | viability, T/C (second compound 0.00316 µM, first compound 10 µM): 31.3% | viability, T/C (second compound 0.01 µM, first compound 0.0316 µM): 88.2% | viability, T/C (second compound 0.01 µM, first compound 0.1 µM): 94.7% | viability, T/C (second compound 0.01 µM, first compound 0.316 µM): 73.6% | viability, T/C (second compound 0.01 µM, first compound 1 µM): 80.1% | viability, T/C (second compound 0.01 µM, first compound 3.16 µM): 54.7% | viability, T/C (second compound 0.01 µM, first compound 10 µM): 18.2% | viability, T/C (second compound 0.0316 µM, first compound 0.0316 µM): 62.3% | viability, T/C (second compound 0.0316 µM, first compound 0.1 µM): 56.3% | viability, T/C (second compound 0.0316 µM, first compound 0.316 µM): 50.5% | viability, T/C (second compound 0.0316 µM, first compound 1 µM): 60.8% | viability, T/C (second compound 0.0316 µM, first compound 3.16 µM): 47.3% | viability, T/C (second compound 0.0316 µM, first compound 10 µM): 13.3% | viability, T/C (second compound 0.1 µM, first compound 0.0316 µM): 48.6% | viability, T/C (second compound 0.1 µM, first compound 0.1 µM): 28.7% | viability, T/C (second compound 0.1 µM, first compound 0.316 µM): 34.8% | viability, T/C (second compound 0.1 µM, first compound 1 µM): 31.8% | viability, T/C (second compound 0.1 µM, first compound 3.16 µM): 24.7% | viability, T/C (second compound 0.1 µM, first compound 10 µM): 12.6% | viability, T/C (second compound 0.316 µM, first compound 0.0316 µM): 21% | viability, T/C (second compound 0.316 µM, first compound 0.1 µM): 21.4% | viability, T/C (second compound 0.316 µM, first compound 0.316 µM): 18.4% | viability, T/C (second compound 0.316 µM, first compound 1 µM): 18.7% | viability, T/C (second compound 0.316 µM, first compound 3.16 µM): 19% | viability, T/C (second compound 0.316 µM, first compound 10 µM): 10.6% | viability, T/C (second compound 1 µM, first compound 0.0316 µM): 18.1% | viability, T/C (second compound 1 µM, first compound 0.1 µM): 15.9% | viability, T/C (second compound 1 µM, first compound 0.316 µM): 13.8% | viability, T/C (second compound 1 µM, first compound 1 µM): 18.4% | viability, T/C (second compound 1 µM, first compound 3.16 µM): 17.1% | viability, T/C (second compound 1 µM, first compound 10 µM): 10.8%
